Results on ten compounds are retold here after patent publication US10039839B2, “Compounds that participate in cooperative binding and uses thereof” (Warp Drive Bio, Inc., priority 2015, dated 2018).

The structures appear in SMILES notation. Square brackets hold non-standard residues; d marks the D form. Peptide text beside a SMILES is read from it. MeBmt = C/C=C/C[C@@H](C)[C@@H](O)[C@H](NC)C(=O)O; NMeY = CN[C@@H](Cc1ccc(O)cc1)C(=O)O; NMeF = CN[C@@H](Cc1ccccc1)C(=O)O; NMeI = CC[C@H](C)[C@H](NC)C(=O)O; NMeT = CN[C@H](C(=O)O)[C@@H](C)O; NMeL = CN[C@@H](CC(C)C)C(=O)O; Tle = CC(C)(C)[C@H](N)C(=O)O; NMeNva = CCC[C@H](NC)C(=O)O; NMeV = CN[C@H](C(=O)O)C(C)C; NMeA = CN[C@@H](C)C(=O)O; dNMeA = CN[C@H](C)C(=O)O; Abu = CC[C@H](N)C(=O)O; Sar = CNCC(=O)O

T1 sequence (P62937 whole entry, species assumed): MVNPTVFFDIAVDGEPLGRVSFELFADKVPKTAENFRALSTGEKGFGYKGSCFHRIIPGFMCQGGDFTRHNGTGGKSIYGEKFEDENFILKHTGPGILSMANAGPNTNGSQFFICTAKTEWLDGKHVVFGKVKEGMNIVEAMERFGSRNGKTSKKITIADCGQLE

The first assay addresses T1, Cyclophilin A (Homo sapiens, UniProt P62937).
T1 construct: made in house
In words: biochemical. In kind it is binding.
Settings: not given
As to the method: This protocol utilizes Perkin Elmers AlphaLISA technology platform to detect cyclosporine analogues by measuring the inhibition of binding of biotinylated Cyclosporin A to FLAG tagged Cyclophilin A.
Add 20 uL of 6 nM Biotinylated CsA working stock to each well of the 96-well plate. Add 1 uL of test compound (100% DMSO) to each well of the plate using the Janus MTD head and P20 tips (except control wells). Add 1 uL of DMSO to negative control wells and 1 uL of 500 uM Cyclosporin A solution to positive control wells. In the dark, add 20 uL of combined Donor/Acceptor beads to each well. Incubate in the dark for 30 minutes at room temperature. […] Incubate in the dark for 60 minutes at room temperature.
Take `C/C=C/C[C@@H](C)[C@@H](O)[C@H]1C(=O)N[C@@H](CC)C(=O)N(C)CC(=O)N(C)[C@@H]([C@@H](C)CC)C(=O)N[C@@H](C(C)C)C(=O)N(C)CC(=O)N[C@@H](C)C(=O)N[C@H](C)C(=O)N(C)[C@@H](CC(C)C)C(=O)N(C)[C@@H](CC(C)C)C(=O)N(C)[C@@H](C(C)C)C(=O)N1C` [C25] (cyclo([MeBmt][Abu][Sar][NMeI]V[Sar]A[dA][NMeL][NMeL][NMeV])): the “% inhibition of CsA binding to Cyclophilin A” value (“% inhibition of CsA binding” below) stood at 99.63%. Same read-out and setting: the same measure for `C/C=C/C[C@@H](C)[C@@H](O)[C@H]1C(=O)N[C@@H](CC)C(=O)N(C)CC(=O)N(C)[C@H](C)C(=O)N[C@@H](C(C)C)C(=O)N(C)CC(=O)N[C@@H](C)C(=O)N[C@H](C)C(=O)N(C)[C@@H](CC(C)C)C(=O)N(C)[C@@H](CC(C)C)C(=O)N(C)[C@@H](C(C)C)C(=O)N1C` [C27] (cyclo([MeBmt][Abu][Sar][dNMeA]V[Sar]A[dA][NMeL][NMeL][NMeV])): 94.73%; for `C/C=C/C[C@@H](C)[C@@H](O)[C@H]1C(=O)N[C@@H](CC)C(=O)N(C)CC(=O)N(C)[C@@H](Cc2ccccc2)C(=O)N[C@@H](C(C)C)C(=O)N(C)CC(=O)N[C@@H](C)C(=O)N[C@H](C)C(=O)N(C)[C@@H](CC(C)C)C(=O)N(C)[C@@H](CC(C)C)C(=O)N(C)[C@@H](C(C)C)C(=O)N1C` [C28] (cyclo([MeBmt][Abu][Sar][NMeF]V[Sar]A[dA][NMeL][NMeL][NMeV])): 98.94%. Regarding `C/C=C/C[C@@H](C)[C@@H](O)[C@H]1C(=O)N[C@@H](CC)C(=O)N(C)CC(=O)N(C)CC(=O)N[C@@H](C(C)C)C(=O)N(C)CC(=O)N[C@@H](C)C(=O)N[C@H](C)C(=O)N(C)[C@@H](CC(C)C)C(=O)N(C)[C@@H](CC(C)C)C(=O)N(C)[C@@H](C(C)C)C(=O)N1C` [C29] (cyclo([MeBmt][Abu][Sar][Sar]V[Sar]A[dA][NMeL][NMeL][NMeV])), the “% inhibition of CsA binding” value turned out to be 98.77%. Same read-out and setting: the same measure for `C/C=C/C[C@@H](C)[C@@H](O)[C@H]1C(=O)N[C@@H](CC)C(=O)N(C)CC(=O)N(C)[C@H](C)C(=O)N[C@@H](C(C)C)C(=O)N(C)[C@@H](CC(C)C)C(=O)N[C@@H](CC(C)C)C(=O)N[C@H](C)C(=O)N(C)[C@@H](CC(C)C)C(=O)N(C)[C@@H](CC(C)C)C(=O)N(C)[C@@H](C(C)C)C(=O)N1C` [C47] (cyclo([MeBmt][Abu][Sar][dNMeA]V[NMeL]L[dA][NMeL][NMeL][NMeV])): 95.71%; for `C/C=C/C[C@@H](C)[C@@H](O)[C@H]1C(=O)N[C@@H](CC)C(=O)N(C)CC(=O)N(C)[C@@H]([C@@H](C)O)C(=O)N[C@@H](C(C)(C)C)C(=O)N(C)[C@@H](C)C(=O)N[C@@H](CC(C)C)C(=O)N[C@H](C)C(=O)N(C)[C@@H](CC(C)C)C(=O)N(C)[C@@H](CC(C)C)C(=O)N(C)[C@@H](C(C)C)C(=O)N1C` [C75] (cyclo([MeBmt][Abu][Sar][NMeT][Tle][NMeA]L[dA][NMeL][NMeL][NMeV])): 96.12%. Consider `C/C=C/C[C@@H](C)[C@@H](O)[C@H]1C(=O)N[C@@H](CC)C(=O)N(C)CC(=O)N(C)[C@@H](C(C)C)C(=O)N[C@@H](C(C)(C)C)C(=O)N(C)[C@@H](C)C(=O)N[C@@H](CC(C)C)C(=O)N[C@H](C)C(=O)N(C)[C@@H](CC(C)C)C(=O)N(C)[C@@H](CC(C)C)C(=O)N(C)[C@@H](C(C)C)C(=O)N1C` [C77] (cyclo([MeBmt][Abu][Sar][NMeV][Tle][NMeA]L[dA][NMeL][NMeL][NMeV])), for which the “% inhibition of CsA binding” value stood at 99.56%.

As for `C/C=C/C[C@@H](C)[C@@H](O)[C@H]1C(=O)N[C@@H](CC)C(=O)N(C)CC(=O)N(C)[C@H](C)C(=O)N[C@@H](C(C)C)C(=O)N(C)[C@@H](C)C(=O)N[C@@H](CC(C)C)C(=O)N[C@H](C)C(=O)N(C)[C@@H](CC(C)C)C(=O)N(C)[C@@H](CC(C)C)C(=O)N(C)[C@@H](C(C)C)C(=O)N1C` [C83] (cyclo([MeBmt][Abu][Sar][dNMeA]V[NMeA]L[dA][NMeL][NMeL][NMeV])), the “% inhibition of CsA binding” value worked out at 99.35%. On the same count and under the same terms, the same measure for `C/C=C/C[C@@H](C)[C@@H](O)[C@H]1C(=O)N[C@@H](CC)C(=O)N(C)CC(=O)N(C)[C@@H](Cc2ccc(O)cc2)C(=O)N[C@@H](C(C)C)C(=O)N(C)[C@@H](CC(C)C)C(=O)N[C@@H](CC)C(=O)N[C@H](C)C(=O)N(C)[C@@H](CC(C)C)C(=O)N(C)[C@@H](CC(C)C)C(=O)N(C)[C@@H](C(C)C)C(=O)N1C` [C100] (cyclo([Abu][Sar][NMeY]V[NMeL][Abu][dA][NMeL][NMeL][NMeV][MeBmt])): 95.72%; for `C/C=C/C[C@@H](C)[C@@H](O)[C@H]1C(=O)N[C@@H](CC)C(=O)N(C)CC(=O)N(C)[C@@H](CCC)C(=O)N[C@@H](C(C)C)C(=O)N(C)[C@@H](CC(C)C)C(=O)N[C@@H](CC)C(=O)N[C@H](C)C(=O)N(C)[C@@H](CC(C)C)C(=O)N(C)[C@@H](CC(C)C)C(=O)N(C)[C@@H](C(C)C)C(=O)N1C` [C102] (cyclo([Abu][Sar][NMeNva]V[NMeL][Abu][dA][NMeL][NMeL][NMeV][MeBmt])): 99.30%.

Still in this assay, the particulars now being: read-out: IC50 value of CsA binding to Cyclophilin A.
As for `C/C=C/C[C@@H](C)[C@@H](O)[C@H]1C(=O)N[C@@H](CC)C(=O)N(C)CC(=O)N(C)[C@H](C)C(=O)N[C@@H](C(C)C)C(=O)N(C)[C@@H](CC(C)C)C(=O)N[C@@H](CC(C)C)C(=O)N[C@H](C)C(=O)N(C)[C@@H](CC(C)C)C(=O)N(C)[C@@H](CC(C)C)C(=O)N(C)[C@@H](C(C)C)C(=O)N1C` [C47] (cyclo([MeBmt][Abu][Sar][dNMeA]V[NMeL]L[dA][NMeL][NMeL][NMeV])), the concentration for half-maximal inhibition (IC50) (as a rule, the concentration that gives 50% inhibition) was less than 2000 nM.
